Reference: patent US20240158446A1, “CYCLIC COMPOUND HAVING SELECTIVE INHIBITORY ACTION ON KRAS OVER HRAS AND NRAS” (CHUGAI SEIYAKU KABUSHIKI KAISHA, priority 2021, published 2024)
Read-outs that look alike come from different tables or passages of the source. Where a SMILES comes first, the peptide text is derived from it. Bridges are numbered along the chain shown (N, C = ends). [ ]: non-standard residue; d: D form. The star is where a group is joined. hPhe(3,5-F2-4-CF3) = N[C@@H](CCc1cc(F)c(C(F)(F)F)c(F)c1)C(=O)O; hPhe(3-Cl-4-CF3) = N[C@@H](CCc1ccc(C(F)(F)F)c(Cl)c1)C(=O)O; NPrPhe(4-CF3) = CCCN[C@@H](Cc1ccc(C(F)(F)F)cc1)C(=O)O; NMeGly(cPent) = CN[C@H](C(=O)O)C1CCCC1; Pro(4S-Me) = C[C@@H]1CN[C@H](C(=O)O)C1; Nva(3-Et) = CCC(CC)[C@H](N)C(=O)O; NMeD = CN[C@@H](CC(=O)O)C(=O)O; NMeL = CN[C@@H](CC(C)C)C(=O)O; Oxazolidin(3-yl) = C1CN(*)CO1; Morpholide = C1CN(*)CCO1; NMeA = CN[C@@H](C)C(=O)O; Ac5c = NC1(C(=O)O)CCCC1; Aze = O=C(O)[C@@H]1CCN1; Sar = CNCC(=O)O

Key:
[1] = target: GDP-bound KRAS wild-type protein (Homo sapiens, UniProt P01116); assay: Binding to KRAS by surface plasmon resonance (SPR), Single Cycle Kinetics; conditions: GDP-bound KRAS wild-type protein, read-out: KRAS KD
GDP-bound KRAS wild-type protein, sequence (P01116 whole entry): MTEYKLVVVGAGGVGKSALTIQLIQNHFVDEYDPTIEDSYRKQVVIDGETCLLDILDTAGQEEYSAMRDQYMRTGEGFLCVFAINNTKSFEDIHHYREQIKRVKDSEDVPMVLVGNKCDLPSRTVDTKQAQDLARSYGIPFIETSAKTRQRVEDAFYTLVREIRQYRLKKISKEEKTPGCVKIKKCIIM

[2] = target: GDP-bound NRAS wild-type protein (Homo sapiens, UniProt P01111); assay: Binding to NRAS by surface plasmon resonance (SPR), Single Cycle Kinetics; conditions: for NRAS/KRAS (ratio of KD value for NRAS to KD value for KRAS) / NRAS/KRAS (ratio of KD value with respect to NRAS to KD value with respect to KRAS): SPR, GDP-bound NRAS wild-type protein vs GDP-bound KRAS wild-type protein
GDP-bound NRAS wild-type protein, sequence (P01111 whole entry): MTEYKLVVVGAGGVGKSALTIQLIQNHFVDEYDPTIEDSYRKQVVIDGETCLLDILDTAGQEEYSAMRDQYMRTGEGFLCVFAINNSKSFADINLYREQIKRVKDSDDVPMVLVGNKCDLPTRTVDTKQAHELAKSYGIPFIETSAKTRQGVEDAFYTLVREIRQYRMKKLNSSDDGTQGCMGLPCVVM

[3] = target: GDP-bound HRAS wild-type protein (Homo sapiens, UniProt P01112); assay: Binding to HRAS by surface plasmon resonance (SPR), Single Cycle Kinetics; conditions: for HRAS/KRAS (ratio of KD value for HRAS to KD value for KRAS) / HRAS/KRAS (ratio of KD value with respect to HRAS to KD value with respect to KRAS): SPR, GDP-bound HRAS wild-type protein vs GDP-bound KRAS wild-type protein
GDP-bound HRAS wild-type protein, sequence (P01112 whole entry): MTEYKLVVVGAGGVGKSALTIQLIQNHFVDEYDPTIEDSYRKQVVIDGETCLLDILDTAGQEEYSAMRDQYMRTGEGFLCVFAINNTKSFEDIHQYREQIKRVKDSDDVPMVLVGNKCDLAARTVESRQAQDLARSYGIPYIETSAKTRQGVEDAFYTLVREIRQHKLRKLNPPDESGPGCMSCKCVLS

[4] = SPR Single Cycle Kinetics, 1:1 binding model

SMILES	Kd [1, 4] [nM]	NRAS/KRAS (ratio of KD value for NRAS to KD value for KRAS) [2]	HRAS/KRAS (ratio of KD value for HRAS to KD value for KRAS) [3]	Kd ([1]; SPR, Single Cycle Kinetics) [nM]	NRAS/KRAS (ratio of KD value with respect to GDP-bound NRAS wild-type protein to KD value with respect to KRAS) ([2]; SPR KD ratio NRAS/KRAS, class symbols)	HRAS/KRAS (ratio of KD value with respect to GDP-bound HRAS wild-type protein to KD value with respect to KRAS) ([3]; SPR KD ratio HRAS/KRAS, class symbols)	NRAS/KRAS (ratio of KD value with respect to NRAS to KD value with respect to KRAS) [2]	HRAS/KRAS (ratio of KD value with respect to HRAS to KD value with respect to KRAS) [3]
CCCN1C(=O)[C@@H]2CCN2C(=O)[C@H](C)N(C)C(=O)[C@H]([C@@H](C)CC)NC(=O)[C@H](CC(C)C)N(C)C(=O)C[C@@H](C(=O)N2CCOC2)N(C)C(=O)[C@H](C2CCCC2)N(C)C(=O)C2(CCCC2)NC(=O)[C@@H]2CCCN2C(=O)[C@H](CCc2ccc(C(F)(F)F)c(Cl)c2)NC(=O)CN(C)C(=O)[C@@H]1Cc1ccc(C(F)(F)F)cc1 [PP0183] ([NMeL]I[NMeA][Aze][NPrPhe(4-CF3)][Sar][hPhe(3-Cl-4-CF3)]P[Ac5c][NMeGly(cPent)][NMeD]-{Oxazolidin(3-yl)}; lactam N-11)	0.17	C (A compound having a KD ratio of 0.1 or more and less than 3 is denoted as C)	B (a compound having 3 or more and less than 10 is denoted as B)					
CCO[C@@H]1C[C@H]2C(=O)NC3(CCC3)C(=O)N(C)[C@@H](C3CCCC3)C(=O)N(C)[C@H](C(=O)N(C)C)CC(=O)N(C)[C@@H](CC)C(=O)N[C@@H]([C@@H](C)CC)C(=O)N(C)CC(=O)N(C)[C@H]3CCCCN(C3=O)[C@@H](Cc3ccc(C(F)(F)F)cc3)C(=O)N(C)CC(=O)N[C@@H](CCc3ccc(Cl)c(Cl)c3)C(=O)N2C1 [PP0987]		C (A compound having a KD ratio of 0.1 or more and less than 3 is denoted as C)	C (A compound having a KD ratio of 0.1 or more and less than 3 is denoted as C)	0.024				
CCO[C@@H]1C[C@H]2C(=O)NC3(CCC3)C(=O)N(C)[C@@H](C(C)(C)C)C(=O)N(C)[C@H](C(=O)N3CCOCC3)CC(=O)N(C)[C@@H](CC(C)C)C(=O)N[C@@H]([C@@H](C)CC)C(=O)N(C)CC(=O)N(C)[C@H]3CCCCN(C3=O)[C@@H](Cc3ccc(C(F)(F)F)cc3)C(=O)N(C)CC(=O)N[C@@H](CCc3cc(F)c(C(F)(F)F)c(F)c3)C(=O)N2C1 [PP0814]		B (a compound having 3 or more and less than 10 is denoted as B)	B (a compound having 3 or more and less than 10 is denoted as B)	0.039				
CCO[C@@H]1C[C@H]2C(=O)NC3(CC(C)(C)C3)C(=O)N(C)[C@@H](C3CCCC3)C(=O)N(C)[C@H](C(=O)N(C)CC)CC(=O)N(C)[C@@H](CC)C(=O)N[C@@H]([C@@H](C)CC)C(=O)N(C)CC(=O)N(C)[C@H]3C/C=C\CCN(C3=O)[C@@H](Cc3ccc(C(F)(F)F)cc3)C(=O)N(C)CC(=O)N[C@@H](CCc3ccc(Cl)c(Cl)c3)C(=O)N2C1 [PP2822]	0.26				A (a compound having 10 or more and less than 20 is denoted as A)	A (a compound having 10 or more and less than 20 is denoted as A)		
CCCN1C(=O)[C@@H]2CCN2C(=O)CN(C)C(=O)[C@H](C(CC)CC)NC(=O)[C@H](CC(C)C)N(C)C(=O)C[C@@H](C(=O)N2CCOCC2)N(C)C(=O)[C@H](C2CCCC2)N(C)C(=O)C2(CCCC2)NC(=O)[C@@H]2CCCN2C(=O)[C@H](CCc2cc(F)c(C(F)(F)F)c(F)c2)NC(=O)CN(C)C(=O)[C@@H]1Cc1ccc(C(F)(F)F)cc1 [PP0804] ([NMeL][Nva(3-Et)][Sar][Aze][NPrPhe(4-CF3)][Sar][hPhe(3,5-F2-4-CF3)]P[Ac5c][NMeGly(cPent)][NMeD]-Morpholide; lactam N-11)	1.4						C (A compound having a KD ratio of 0.1 or more and less than 3 is denoted as C)	B (a compound having 3 or more and less than 10 is denoted as B)
CCCN1C(=O)[C@@H]2CCN2C(=O)CN(C)C(=O)[C@H]([C@@H](C)CC)NC(=O)[C@H](CC(C)C)N(C)C(=O)C[C@@H](C(=O)N2CCOCC2)N(C)C(=O)[C@H](C2CCCC2)N(C)C(=O)C2(CCCC2)NC(=O)[C@@H]2C[C@H](C)CN2C(=O)[C@H](CCc2ccc(C(F)(F)F)c(Cl)c2)NC(=O)CN(C)C(=O)[C@@H]1Cc1ccc(C(F)(F)F)cc1 [PP0457] ([NMeL]I[Sar][Aze][NPrPhe(4-CF3)][Sar][hPhe(3-Cl-4-CF3)][Pro(4S-Me)][Ac5c][NMeGly(cPent)][NMeD]-Morpholide; lactam N-11)	0.083						C (A compound having a KD ratio of 0.1 or more and less than 3 is denoted as C)	B (a compound having 3 or more and less than 10 is denoted as B)
CCCN1C(=O)CN(C)C(=O)CNC(=O)[C@H]([C@@H](C)CC)NC(=O)[C@H](CC(C)C)N(C)C(=O)C[C@@H](C(=O)N2CCOCC2)NC(=O)[C@H](C2CCCC2)N(C)C(=O)C2(CCCC2)NC(=O)[C@@H]2CCCN2C(=O)[C@H](CCc2ccc(C(F)(F)F)c(Cl)c2)NC(=O)CN(C)C(=O)[C@@H]1Cc1ccc(C(F)(F)F)cc1 [PP0325] ([NMeL]IG[Sar][NPrPhe(4-CF3)][Sar][hPhe(3-Cl-4-CF3)]P[Ac5c][NMeGly(cPent)]D-Morpholide; lactam N-11)	1.1	B (a compound having 3 or more and less than 10 is denoted as B)	B (a compound having 3 or more and less than 10 is denoted as B)					
CCO[C@@H]1C[C@H]2C(=O)NC3(CCC3)C(=O)N(C)[C@@H](C3CCCC3)C(=O)N(C)[C@H](C(=O)N(C)C)CC(=O)N(C)[C@@H](CC)C(=O)N[C@@H]([C@@H](C)CC)C(=O)N(C)CC(=O)N(C)[C@H]3CCCCCN(C3=O)[C@@H](Cc3ccc(F)c(OC)c3)C(=O)N(C)CC(=O)N[C@@H](CCc3cc(F)c(C(F)(F)F)c(F)c3)C(=O)N2C1 [PP0915]		B (a compound having 3 or more and less than 10 is denoted as B)	B (a compound having 3 or more and less than 10 is denoted as B)	0.14				
CCO[C@@H]1C[C@H]2C(=O)NC3(CCC3)C(=O)N(C)[C@@H](C3CCCC3)C(=O)N(C)[C@H](C(=O)N(C)C)CC(=O)N(C)[C@@H](CCC(F)F)C(=O)N[C@@H]([C@@H](C)CC)C(=O)N(C)CC(=O)N(C)[C@H]3C/C=C\CCN(C3=O)[C@@H](Cc3ccc(C(F)(F)F)cc3)C(=O)N(C)CC(=O)N[C@@H](CCc3cc(F)c(C(F)(F)F)c(F)c3)C(=O)N2C1 [PP1121, (2S,8S,12R,14S,20S,23S,27S,30S,36S,38Z)-20-cyclopentyl-27-(3,3-difluoropropyl)-8-[2-[3,5-difluoro-4-(trifluoromethyl)phenyl]ethyl]-12-ethoxy-N,N,4,19,22,26,32,35-octamethyl-30-[(1S)-1-methylpropyl]-3,6,9,15,18,21,25,28,31,34,42-undecaoxo-2-[[4-(trifluoromethyl)phenyl]methyl]spiro[1,4,7,10,16,19,22,26,29,32,35-undecazatricyclo[34.5.1.0^10,14]dotetracont-38-ene-17,1′-cyclobutane]-23-carboxamide]		A (a compound having 10 or more and less than 20 is denoted as A)	A (a compound having 10 or more and less than 20 is denoted as A)	0.049				
CC[C@H](C)[C@@H]1NC(=O)[C@H](CC(C)C)N(C)C(=O)C[C@@H](C(=O)N2CCOCC2)N(C)C(=O)[C@H](C2CCCC2)N(CC)C(=O)C2(CCCC2)NC(=O)[C@@H]2CCCN2C(=O)[C@H](CCc2cc(F)c(C(F)(F)F)c(F)c2)NC(=O)CN(C)C(=O)[C@H](Cc2ccc(C(F)(F)F)cc2)N2CCCC[C@@H](C2=O)N(C)C(=O)CN(C)C1=O [PP0538]	0.67						B (a compound having 3 or more and less than 10 is denoted as B)	B (a compound having 3 or more and less than 10 is denoted as B)
CCO[C@@H]1C[C@H]2C(=O)NC3(CC(C)(C)C3)C(=O)N(C)[C@@H](C(CC)CC)C(=O)N(C)[C@H](C(=O)N(C)C)CC(=O)N(C)[C@@H](CC(C)C)C(=O)N[C@@H]([C@@H](C)CC)C(=O)N(C)CC(=O)N(C)[C@H]3C/C=C\CCN(C3=O)[C@@H](Cc3ccc(C(F)(F)F)cc3)C(=O)N(C)CC(=O)N[C@@H](CCc3cc(F)c(C(F)(F)F)c(F)c3)C(=O)N2C1 [PP2127]		AA (a compound having 20 or more is denoted as AA)	A (a compound having 10 or more and less than 20 is denoted as A)	0.18				
CC[C@H](C)[C@@H]1NC(=O)[C@H](CC(C)C)N(C)C(=O)C[C@@H](C(=O)N2CCOCC2)N(C)C(=O)[C@H](C2CCCC2)N(C)C(=O)C2(CCCC2)NC(=O)[C@@H]2CCCN2C(=O)[C@H](CCc2ccc(C(F)(F)F)c(Cl)c2)NC(=O)CN(C)C(=O)[C@H](Cc2ccc(C(F)(F)F)cc2)N2CCCC[C@@H](C2=O)N(C)C(=O)CN(C)C1=O [PP0318]	0.034	B (a compound having 3 or more and less than 10 is denoted as B)	B (a compound having 3 or more and less than 10 is denoted as B)					
CC[C@H](C)[C@@H]1NC(=O)[C@H](CC)N(C)C(=O)C[C@@H](C(=O)N(C)C)N(C)C(=O)[C@H](C2CCCC2)N(C)C(=O)C2(CCC2)NC(=O)[C@@H]2C[C@@H](N3CCC(F)(F)CC3)CN2C(=O)[C@H](CCc2cc(F)c(C(F)(F)F)c(F)c2)NC(=O)CN(C)C(=O)[C@H](Cc2ccc(C(F)(F)F)cc2)N2CCCC[C@@H](C2=O)N(C)C(=O)CN(C)C1=O [PP0656]	0.039						C (A compound having a KD ratio of 0.1 or more and less than 3 is denoted as C)	C (A compound having a KD ratio of 0.1 or more and less than 3 is denoted as C)
